# According to PubChem BioAssay AID1981 (Southern Research Specialized Biocontainment Screening …, 2009):
# pIC50: −log10 of the molar value.
# System: S. Typhimurium PhoP-promoter GFP reporter counterscreen, fluorescence, 4 h
# Experiment: S. Typhimurium GFP fluorescence modified counterscreen for PhoP regulon inhibitor project dose response (AID 1981)
row,Compound,pIC50
1,Cc1cc2nc3ccc(=[N+](C)C)cc-3sc2cc1N,4.49
2,Cc1cc(C)c(NC(=O)c2cn3c4c(c(N5CCN(C)CC5)c(F)cc4c2=O)OCC3C)c(C)c1 (stereo not drawn),4.45
3,COc1cc(C)c(Cc2cnc(N)nc2N)cc1OC,5.52
4,CC(=O)NC(c1ccc(Cl)cc1Cl)c1ccc2cccnc2c1O (stereo not drawn),4.40
5,COc1ccc(C(C[N+](=O)[O-])c2c(-c3ccccc3)cc3ccccn23)cc1 (stereo not drawn),4.24
6,CC1CCc2c(N3CCC(O)CC3)c(F)cc3c(=O)c(C(=O)O)cn1c23 (stereo not drawn),5.18
7,CCCCCC(CC(=O)NO)C(=O)NC(C(=O)N1CCCC1CO)C(C)C (stereo not drawn),4.48
8,c1ccc2c(NC3=NCCS3)cccc2c1,3.95
9,NC(N)=NN=C1CCCCCCCCCCC1,4.09
10,Oc1ccc(NCc2ccccc2OCc2ccccc2F)cc1,4.10
11,CC(C)Oc1ccc(Cc2cnc(N)nc2N)cc1,4.27
12,Cc1cc(C(=O)N/N=C/c2ccc(O)c(O)c2O)c(C)n1-c1ccccc1,4.52
13,Oc1ccc(CNc2ccccc2F)c2cccnc12,4.12
14,O=C(Cc1ccccc1)Nc1cccc(N2C(=O)C=CC2=O)c1,3.85
15,CCCCCCCCCCOC(=O)C[N+](C)(C)C/C=C(/C)Cl,4.08
16,Cc1scc(C(=O)N/N=C/c2ccc([N+](=O)[O-])o2)c1C,4.16
17,Cc1cc(/C=N/n2c(COc3ccccc3)nc3ccccc3c2=O)c(O)c([N+](=O)[O-])c1,4.21
18,Oc1ccc(CN2CCc3ccccc3C2)c2cccnc12,4.52
19,CCn1cc(C(=O)O)c(=O)c2cc(F)c(N3CCN(C(=S)Nc4ccccc4OC)CC3)cc21,4.66
20,O=CN/N=C/c1c(O)ccc2ccccc12,4.23
21,Nc1ccc2c(c1)C(=O)C(=O)c1ccccc1-2,4.96
22,CC[n+]1c(/C=C/N(C)c2ccccc2)n(-c2ccccc2)c2ccc(-c3nc4ccccc4s3)cc21,4.66
23,Fc1ccccc1CCNCc1ccccc1,4.31
24,CNc1nc(NCc2ccccc2)c2ccccc2n1,4.01
25,C[C@H]1c2cccc(O)c2C(O)=C2C(=O)[C@]3(O)C(O)=C(C(N)=O)C(=O)[C@@H](N(C)C)[C@@H]3[C@@H](O)[C@@H]21,5.81
26,C#CCOCCOCCOCCNc1nc(N2CCN(C(=O)CCCCCCCCCCNC(=O)[C@H](CCCN=C(N)N)n3cc(C[C@@H](C)CC)nn3)CC2)nc(N2CCN(C(=O)CCCCCCCCCCNC(=O)[C@@H]([C@H](C)CC)n3cc(CCCCCN)nn3)CC2)n1,4.38
27,CCn1cc(C(=O)O)c(=O)c2cc3c(cc21)OCO3,4.17

row,Compound,pIC50
1,CC[n+]1c(/C=C/C=C/c2ccc(N(C)C)cc2)sc2ccccc21,4.13
2,ON=C1/C(=N\O)CC2(C/C1=N/O)OCCO2,3.90
3,Cc1cc(C(=O)N/N=C/c2ccc([N+](=O)[O-])s2)n[nH]1,4.44
4,Cc1ccc(C(C[N+](=O)[O-])c2c(-c3ccccc3O)[nH][nH]c2=O)cc1 (stereo not drawn),4.41
5,CCCCC(CC)CN=C(N)NC(N)=NCCCCCCN=C(N)NC(N)=NCC(CC)CCCC (stereo not drawn),5.26
6,NC1=NC[C@H](Cc2ccc(O)cc2)N1CCC12CC3CC(CC(C3)C1)C2,4.10
7,CCn1cc(C(=O)O)c(=O)c2cc(F)c(N3CCN(C(=S)NC(=O)c4ccc(F)c(F)c4)CC3)cc21,4.33
8,Cc1ccc(C(=O)O)cc1N=Cc1cc(Br)cc(Br)c1O,3.98
9,Oc1cccc(/C=N/Nc2ccc(Cl)nn2)c1O,4.61
10,O=C(N/N=C\C=C\c1ccc([N+](=O)[O-])o1)c1cccs1,4.46
11,CCCCCOc1ccc(CSC(=N)N)cc1[N+](=O)[O-],4.06
12,O=C1NC(=S)S/C1=C\C=C\c1ccc([N+](=O)[O-])o1,4.54
13,CCN1/C(=C/C=C/c2sc3ccccc3[n+]2CC)Sc2ccccc21,4.43
14,CCn1cc(C(=O)NCCO)c(=O)c2cc(F)c(N3CCN(C)CC3)cc21,4.52
15,C=CC1=C(C(=O)O)N2C(=O)[C@@H](NC(=O)/C(=N\O)c3csc(N)n3)[C@H]2SC1 (stereo in doubt),4.47
16,CC(C(=O)c1ccc(-c2ccccc2)cc1)[n+]1cccc(NC(=O)c2ccccc2)c1 (stereo not drawn),3.98
17,O=C(O)C1Nc2c(O)cccc2C2C=CCC12 (stereo not drawn),4.19
18,CCCCCCCCCn1c2c(c(=N)c3c1CCC3)CCCC2,4.27
19,CN1CCN(c2cc3c(cc2F)c(=O)c(C(=O)O)cn3CCF)CC1,6.29
20,Nc1nnc(-c2cccc(Cl)c2Cl)c(N)n1,4.18
21,O=C(NC1CCCC1)c1ccc(Cl)s1,4.06
22,COc1ccc2[nH]c3c(C)c4ccncc4c(C)c3c2c1,4.09
23,C#CCOCCOCCOCCNc1nc(N2CCN(C(=O)CCCCCCCCCCNC(=O)[C@H]([C@@H](C)CC)n3cc(CCCCN=C(N)N)nn3)CC2)nc(N2CCN(C(=O)CCCCCCCCCCNC(=O)[C@H]([C@@H](C)CC)n3cc(CCCCN=C(N)N)nn3)CC2)n1,4.21
24,O=C(N[C@H](CO)[C@H](O)c1ccc([N+](=O)[O-])cc1)C(Cl)Cl,5.07
25,Clc1ccc(CNCc2cccs2)cc1Cl,3.91
26,CCCCCCCCn1c2c(c(=N)c3ccccc31)CCC2,4.10
